Laboratory results: paper PMC7073886, “Structure–Bioactivity Relationships of Lapatinib Derived Analogs against Schistosoma mansoni” (ACS Medicinal Chemistry Letters, 2020)
Values after ≈ are worked out from the molar mass of the structure shown. “Also recorded” adds a separate entry of the source.

Legend:
[1] = tested on: adult S. mansoni; test: Phenotypic screen of adult S. mansoni worms, severity scores and descriptors; type: cell-based, Schistosoma mansoni; conditions: for Descriptors (10 µM) 1 h / Severity Scores (10 μM) 1 h / Descriptors (10 µM) 5 h / Severity Scores (10 μM) 5 h / Descriptors (10 µM) 24 h / Severity Scores (10 μM) 24 h / Severity Scores (10 μM) 48 h / Descriptors (10 µM) 48 h: adult S. mansoni; for Descriptors (10 µM) 1 h / Descriptors (10 µM) 5 h / Descriptors (10 µM) 24 h / Descriptors (10 µM) 48 h: phenotypic descriptors; for Severity Scores (10 μM) 1 h / Severity Scores (10 μM) 5 h / Severity Scores (10 μM) 24 h / Severity Scores (10 μM) 48 h: scale 0 (no activity) to 4 (maximal activity); for bioactivity against adult S. mansoni: adult schistosomes; for Severity Scores (10 μM) 1 h / Severity Scores (10 μM) 5 h / Severity Scores (10 μM) 24 h / Severity Scores (10 μM) 48 h / bioactivity against adult S. mansoni: 10 μM
Source text: Because the schistosome parasite can present multiple and dynamic phenotypic responses to chemical insult,[16] we employ a constrained nomenclature of descriptors to describe the changes in the parasite as a function of time and concentration (e.g., motility, density, and shape; and in the case of the adult parasite, an inability to adhere to the bottom of the assay dish). These descriptors are converted into severity scores on a scale of 0 (green)–4 (severest/red) that allow for partially quantitative comparisons of compound effects.[1]−[19] […] The descriptors themselves and their respective scores are detailed in the Supporting Information, Table S1. Severity score data are presented in the results (with the corresponding descriptors detailed in the Supporting Information, Tables S2–S8), and eight new analogs developed and synthesized in support of this effort are described. Finally, absorption, distribution, metabolism and excretion (ADME) data of all compounds presented in this work are reported in the Supporting Information, Table S15.
Table S1. Descriptors and associated severity scores used for S. mansoni adults.
R (rounded or shape altered 1
On sides (adults unable to 1
Shrunk (adults are shorter 1
surface (tegument) of adults)
dfailed to create analytical method
Maintenance of the Schistosoma mansoni life cycle (NMRI isolate), the preparation of adult worms (≥ 42-
days-old), and their co-incubation with test compounds were as described.7-9 Phenotypic responses were
visually recorded using a constrained nomenclature and converted to severity scores on a scale from zero
(no activity) to 4 (maximal activity).8, 9 Use of hamsters for maintaining the S. mansoni life-cycle was
approved by the Institutional Animal Care and Use Committee of the University of California San Diego.
The human myelomonocytic cell line THP -1 was grown at 37 °C and 5% CO2 in RPMI-1640 supplemented
with 10% iFBS, 2 mM glutamate, 100 U/mL penicillin and […] streptomycin.
Drug toxicity to HepG2 cells .10 HepG2 cells line were obtained from the American Type Culture
Collection and cultured in Minimal Essential Medium (MEM) supplemented with 0.19% sodium
bicarbonate, 10% Fetal Bovine Serum, 2 mM L -glutamine, 0.1 mM MEM non-essential amino, 0.009
mg/mL insulin, 1.76 mg/mL bovine serum albumin. The viability of the cells was measured using the MTT
(thiazolyl blue reduction) method. Briefly, ninety -six-well plates were seeded with 2.5 × 10^4 cells/well in
170 ml of culture medium and incubated overnight in 5% CO 2 at 37 °C. Cells were exposed to different
experimental compounds in DMSO. After 48 hours incubation, the viability of the cells was assessed using
MTT (thiazolyl blue reduction) as a dose response assay (11 two -fold serial dilutions) to obtain a calculated
IC50 determination. 4-Azaindolo[2,1-b]quinazoline-6,12-dione is used as a toxicity positive control and
each assay plate includes the following 3 additional controls: a) background control: no cells and no drug
was added, b) target control: cells added but no drugs, and c) DMSO control: same as the target control
except the culture media contains 0.6% DMSO. Absorbance was determined in all wells using a Perkin
Elmer, Ensight plate reader. The fifty percent inhibitory concentrations (IC50’s) were determined using
GraphPad Prism nonlinear regr ession (sigmoidal dose -response, variable slope) equation .
ADME Experiment Protocols
Aqueous pH 7.4 Solubility. Compounds were dried down from 10 mM DMSO solutions using centrifugal
evaporation technique. Phosphate buffer (0.1 M pH 7.4) was added and StirStix were inserted in the glass
vials, with shaking then performed at a constant temperature of 25 °C for 20 -24 h. This step was followed
by double centrifugation with a tip wash in between, to ensure that no residues of the dried compounds
interfere. The solutions were diluted before analysis and quantification using LC/MS/MS was performed.

[2] = Human liver microsomal Clint; type: in vitro ADME; conditions: human liver microsomes, intrinsic clearance; read-out: HLM Clint
[3] = Rat hepatocyte Clint; type: in vitro ADME; conditions: rat hepatocytes, intrinsic clearance; read-out: RH CLint
[4] = Log D7.4 shake-flask octanol-water; type: physicochemical; conditions: pH 7.4
Method: Log D7.4. Shake-flask octanol-water distribution coefficient was determined at pH 7.4 (Log D7.4). The aqueous solution used is 10 mM sodium phosphate pH 7.4 buffer. The method has been validated for Log D7.4 ranging from -2 to 5.0.
Human Plasma Protein Binding (PPB). PPB was determined using equilibrium dialysis (RED device) to separate free from bound compound. The amount of compound in plasma (10 µM initial concentration) and in dialysis buffer (pH 7.4 phosphate buffer) was measured by LC-MS/MS after equilibration at 37 °C in a dialysis chamber. The fraction unbound (fu) is reported.
Human Liver Microsomal Clint. In vitro intrinsic clearance was determined from human liver microsomes using a standard approach.11 Following incubation and preparation, the samples were analyzed using […]
Rat Hepatocyte Clint. In vitro intrinsic clearance was determined from rat hepatocytes using a standard approach.11 Following incubation and preparation, the samples were analyzed using LC/MS/MS. Refined […]
Calculated LogP and LogD values. Both LogP and LogD predictions are based on a modified version of the method12 where the predicted partition coefficients are composed of the molecules’ atomic increments.
General Chemistry. All starting materials were commercially obtained and were used without further purification, unless specified. Reaction solvents were purified by passage through alumina columns on a purification system manufactured by Innovative Technology (Newburyport, MA). NMR spectra were obtained on Varian NMR systems, operating at 400 or 500 MHz for 1 H acquisitions. LCMS analysis was performed using a Waters AllianceHT e2795 reverse phase HPLC (Waters SunFire C18 4.6 × 50 mm, 3.5 μm column), with a Waters 2996 photodiode array detector scanning from 210 nm to 600 nm, and Waters Micromass ZQ detector (electrospray ionization). Where required, final compounds were purified by preparative reverse phase HPLC (columns Waters Symmetry RP8 30 × 50 mm, 5 μm column, or OBD RP18 30 × 50 mm, 5 μm), with a single wavelength UV−visible detector and Waters Micromass ZQ (electrospray ionization).

[5] = Human plasma protein binding (equilibrium dialysis); type: in vitro ADME; conditions: pH 7.4, 10 µM, 37 °C, read-out: human PPB (plasma protein binding) (converted)
[6] = Aqueous pH 7.4 solubility; type: physicochemical; conditions: for solubility: aqueous buffer, thermodynamic from solid, phosphate buffer pH 7.4, 25 °C, 20-24 h, read-out: aq sol (aqueous solubility)

Row | Structure (SMILES) | Descriptors (10 µM) 1 h [1] | Severity Scores (10 μM) 1 h [1] | Descriptors (10 µM) 5 h [1] | Severity Scores (10 μM) 5 h [1] | Descriptors (10 µM) 24 h [1] | Severity Scores (10 μM) 24 h [1] | Severity Scores (10 μM) 48 h [1] | bioactivity against adult S. mansoni [1] | microsomal CLint [2] | hepatocyte CLint [3] | logD [4] | Descriptors (10 µM) 48 h [1] | fraction unbound [5] | solubility [6] | decrease in aqueous solubility compared with 3 ([6]; relative to 3)
1 | CN(CCNc1ncc(-c2ccc3c(Nc4cnccn4)ccnc3c2)cn1)C(=O)OC(C)(C)C [3e] | none | 0 | none | 0 | none | 0 | 4 | maximal phenotypic response after 48 h | > 300 µL/min/mg | > 300 µL/min/1e6 cells | 4.1 | – | – | – | –
2 | CC(C)(C)OC(=O)N1CCN(c2ncc(-c3ccc4c(Nc5cnccn5)ccnc4c3)cn2)CC1 [3a] | none | 0 | none | 0 | none | 0 | 0 | no bioactivity | > 300 µL/min/mg | 32 µL/min/1e6 cells | 4.7 | none | – | – | –
3 | CCN1CCCN(c2ncc(-c3cc4nccc(Nc5cnccn5)c4cc3C)cn2)CC1 [8c] | none | 0 | – | 4 | – | 4 | 4 | – | – | 32 µL/min/1e6 cells | 2.6 | – | 0.16 | – | –
4 | O=C(O)C1CCCN1c1ncc(-c2ccc3c(Nc4cnccn4)ccnc3c2)cn1 (stereo not drawn) [3c] | none | 0 | none | 0 | none | 0 | 0 | no bioactivity | < 3 µL/min/mg | < 1 µL/min/1e6 cells | 0.1 | none | – | – | –
5 | COc1ccc(Nc2ccnc3cc(-c4cnc(N5CCCN(C)CC5)nc4)ccc23)cc1Cl [5d] | – | 1 | – | 3 | – | 4 | 4 | severe phenotypic responses | 120 µL/min/mg | 9 µL/min/1e6 cells | 2.7 | – | – | 6 µM (≈ 2.85 µg/mL) | 7 fold
6 | CCN1CCN(c2ncc(-c3ccc4c(Nc5cnccn5)ccnc4c3)cn2)CC1 [4b] | none | 0 | – | 1 | – | 1 | 2 | activity after 5 h | > 300 µL/min/mg | 45 µL/min/1e6 cells | 3.5 | S, on sides | – | – | –
7 | CCCN1CCCN(c2ncc(-c3ccc4c(Nc5cnccn5)ccnc4c3)cn2)CC1 [4f] | none | 0 | none | 0 | none | 0 | 0 | – | > 300 µL/min/mg | 32 µL/min/1e6 cells | 3.3 | none | – | – | –
8 | c1cc(-c2ccc3c(c2)ncc2c4ccccc4[nH]c32)cc(N2CCOCC2)c1 [6a] | none | 0 | – | 1 | none | 0 | 1 | minimal bioactivity after 5 h | 57 µL/min/mg | 24 µL/min/1e6 cells | 5.1 | – | – | 0.1 µM (≈ 0.0379 µg/mL) | –
9 | O=C(O)CN1CCN(c2ncc(-c3ccc4c(Nc5cnccn5)ccnc4c3)cn2)CC1 [3b] | none | 0 | none | 0 | none | 0 | 0 | no bioactivity | – | 8.9 µL/min/1e6 cells | 0.7 | none | – | – | –
10 | CCN1CCCN(c2ncc(-c3ccc4c(Nc5cnccn5)ccnc4c3C)cn2)CC1 [9c] | none | 0 | none | 0 | none | 0 | 0 | no bioactivity | – | 21 µL/min/1e6 cells | – | none | 0.12 | – | –
11 | COC(=O)C1CCCN1c1ncc(-c2ccc3c(Nc4cnccn4)ccnc3c2)cn1 (stereo not drawn) [3d] | none | 0 | none | 0 | – | 3 | 4 | bioactivity after 24 h, progressing to the severest response by 48 h | 220 µL/min/mg | 230 µL/min/1e6 cells | 3.5 | – | – | – | –
12 | CN1CCCN(c2ncc(-c3ccc4c(c3)ncc3c5ccccc5[nH]c43)cn2)CC1 [6b] | none | 0 | – | 1 | – | 1 | 4 | minimal bioactivity after 5 h; also recorded: potent activity after 48 h | 110 µL/min/mg | 19 µL/min/1e6 cells | – | – | – | 35 µM (≈ 14.3 µg/mL) | –
